{"source": "patent US20100234832A1", "about": "“METHOD FOR VASCULAR TREATMENT” (priority 2009, published 2010)", "tested_on": "femoral nerve", "assay": "Femoral nerve block with lidocaine injected under echographic/ultrasound control", "format": "in vivo, human", "method": "To accomplish femoral nerve block, an appropriate amount of local anesthetic is injected in the vicinity of femoral nerve close to the femoral artery under ultrasound control. After anesthesia takes effect, a needle is inserted through the skin into the vein to be treated and an optical fiber is introduced inside it. A typical procedure to carry out this task is to insert a guide wire inside the vein through needle's lumen, after the anesthesia has been introduced and takes effect. Once the guide wire is inserted, a dilator is used to slightly increase the size of the punction made onto the skin, in order to accomplish an easy catheter insertion. After catheter is inserted, guide wire is extracted and optical fiber is inserted through the catheter inside the vein and is advanced to the desired start position.\nA main objective of this femoral block is to achieve sensory nerve function for blockage only, thus the least amount of lidocaine used yields the least probability for motor function to be affected. […] As a consequence, there is some minimal amount needed, which might differ by patient and procedure for an adequate and complete sensory block.\nLidocaine solutions much above 0.5% are thus not preferred, as the likelihood of concomitant loss of motor control along with the desired sensory blockage becomes too great, rendering patient recovery period longer. Concentration of other local anesthetics, with differing activity, would have a somewhat different effective range of preferred use.\nA safe and effective femoral block procedure is achieved by sequentially carrying out the following steps: • 1. Attach monitors and if necessary give light sedation. • 2. Put patient in supine position with the operative leg slightly abducted. • 3. Prepare the groin. • 4. Place a transducer with the appropriate frequency range (10-12 MHz) along the inguinal crease. If the femoral artery and nerve are deep (>4 cm), use a 7 MHz transducer. • 5. Optimize machine imaging capability; select appropriate depth of e d (usually within 1-3 cm), focus range and gain. • 6. Identify the femoral artery. […]"}
{"smiles": "CCN(CC)CC(=O)Nc1c(C)cccc1C", "note": "[lidocaine]", "values": [{"measurement": "anesthetic effect (sensory femoral nerve block)", "setting": "0.1% lidocaine, femoral block", "value": "functioned well"}, {"measurement": "motor function blockage", "setting": "20 ml of 1% lidocaine, femoral block", "value": "also blocked motor function"}, {"measurement": "femoral block", "setting": "20 ml of lidocaine, concentration 0.1% to 0.5%, injected under echographic control", "value": "accomplish the femoral block"}]}
